Measurements from PMC10287695, “Non-covalent inhibitors of thioredoxin glutathione reductase with schistosomicidal activity in vivo” (Nature Communications, 2023).

Key:
S. mansoni TGR = target: T1, S. mansoni TGR (Schistosoma mansoni, UniProt Q962Y6); assay: S. mansoni TGR enzyme inhibition (DTNB reduction); format: biochemical; details: TGR
T1 construct: made in house
T1 sequence (Q962Y6 1-598): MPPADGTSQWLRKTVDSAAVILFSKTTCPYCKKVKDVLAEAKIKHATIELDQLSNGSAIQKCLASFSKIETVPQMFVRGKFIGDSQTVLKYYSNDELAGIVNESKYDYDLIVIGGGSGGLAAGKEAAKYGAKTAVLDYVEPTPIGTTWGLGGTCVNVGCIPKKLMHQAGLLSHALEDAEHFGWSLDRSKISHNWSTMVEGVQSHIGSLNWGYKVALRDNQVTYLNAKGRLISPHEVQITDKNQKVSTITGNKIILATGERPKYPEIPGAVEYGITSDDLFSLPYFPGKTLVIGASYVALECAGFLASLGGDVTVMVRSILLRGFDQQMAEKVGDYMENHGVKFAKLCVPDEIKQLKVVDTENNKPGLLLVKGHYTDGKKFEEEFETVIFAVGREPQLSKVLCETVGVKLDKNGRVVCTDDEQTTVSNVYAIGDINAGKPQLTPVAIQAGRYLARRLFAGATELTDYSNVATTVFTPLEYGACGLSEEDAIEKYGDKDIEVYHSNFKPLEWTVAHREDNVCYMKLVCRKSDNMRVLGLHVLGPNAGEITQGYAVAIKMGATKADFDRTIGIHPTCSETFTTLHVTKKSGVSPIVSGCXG
Protocol: Recombinant TGR, human TrxR1, B. malayi (Bm)TrxR and human GR proteins were expressed and purified as described[20],[69],[79]. The codon optimized sequence for P. falciparum (PfTrxR, https://www.ncbi.nlm.nih.gov/protein/CAA60574.1/) with an N-terminal 6-His tag was synthesized and inserted into pET15b (GenScript) and expressed in BL21 (DE3) cells and purified as described for human GR[20]. TGR and TrxR enzyme inhibition assays were performed in triplicate at 25 °C as described[20] in 0.1 M potassium phosphate (pH 7.4), 10 mM EDTA, 100 µM NADPH and 0.01% Tween-20. […] The reaction was started with addition of an equal volume of DTNB (6 mM) and NADPH (100 µM) and the increase in A412 during the first 3 min was recorded. […] The reaction was preincubated for 15 min. Activity was initiated with the addition of 1 mM GSSG and 100 μM NADPH and initial rates of NADPH oxidation were monitored at 340 nm. The reactions were done in triplicate. The IC50 was calculated in GraphPad Prism.

Human GR = target: T2, Human GR (Homo sapiens, UniProt P00390); assay: Human GR enzyme inhibition (GSSG reduction, NADPH oxidation); format: biochemical; details: hGR
T2 construct: made in house
T2 sequence (P00390 44-522): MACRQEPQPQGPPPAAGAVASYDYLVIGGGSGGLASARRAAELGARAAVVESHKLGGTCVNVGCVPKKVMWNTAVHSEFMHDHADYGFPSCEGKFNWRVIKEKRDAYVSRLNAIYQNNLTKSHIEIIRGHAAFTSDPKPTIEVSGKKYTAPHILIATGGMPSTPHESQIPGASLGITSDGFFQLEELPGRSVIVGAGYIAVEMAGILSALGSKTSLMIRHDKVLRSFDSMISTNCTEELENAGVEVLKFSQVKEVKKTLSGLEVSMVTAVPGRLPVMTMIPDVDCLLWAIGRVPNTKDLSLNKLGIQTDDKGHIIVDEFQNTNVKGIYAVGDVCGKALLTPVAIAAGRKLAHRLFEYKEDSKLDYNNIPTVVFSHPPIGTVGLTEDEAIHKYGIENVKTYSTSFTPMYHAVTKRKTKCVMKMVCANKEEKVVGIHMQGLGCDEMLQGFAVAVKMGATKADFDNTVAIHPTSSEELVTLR
Protocol: Recombinant TGR, human TrxR1, B. malayi (Bm)TrxR and human GR proteins were expressed and purified as described[20],[69],[79]. The codon optimized sequence for P. falciparum (PfTrxR, https://www.ncbi.nlm.nih.gov/protein/CAA60574.1/) with an N-terminal 6-His tag was synthesized and inserted into pET15b (GenScript) and expressed in BL21 (DE3) cells and purified as described for human GR[20]. TGR and TrxR enzyme inhibition assays were performed in triplicate at 25 °C as described[20] in 0.1 M potassium phosphate (pH 7.4), 10 mM EDTA, 100 µM NADPH and 0.01% Tween-20. TGR, human TrxR1 and BmTrxR (all at 4 nM) and PfTrxR (50 nM) were preincubated with the compounds for 15 min. The reaction was started with addition of an equal volume of DTNB (6 mM) and NADPH (100 µM) and the increase in A412 during the first 3 min was recorded. […] […] Activity was initiated with the addition of 1 mM GSSG and 100 μM NADPH and initial rates of NADPH oxidation were monitored at 340 nm. The reactions were done in triplicate. The IC50 was calculated in GraphPad Prism.

[1] = test system: S. mansoni newly transformed schistosomula (NTS); assay: Schistosomicidal activity ex vivo, NTS (Cell Titer Glo); format: cell-based; details: S. mansoni NTS
Protocol: Oncomelania hupensis subsp. hupensis, Chinese strain, infected with S. japonicum, Chinese strain, and Biomphalaria glabrata, strain NMRI, infected with S. mansoni, strain NMRI, were provided by the NIAID Schistosomiasis Resource Center for distribution through BEI Resources, NIAID, NIH. After infections were patent, snails were exposed to bright light for 1 hr to obtain cercariae. Cercariae were mechanically transformed to schistosomula. Briefly, cercariae were placed on ice for 30 min and then centrifuged at 350 × g for 10 mins. The supernatant was decanted and 2 ml of serum-free M199 medium was added to cercarial pellets and vortexed for 1 min until cercarial tails were detached. NTS were purified by layering on 4 °C Percoll gradient suspension containing Eagle’s minimum essential medium, penicillin-streptomycin (10,000 U per ml penicillin/10,000 U per ml streptomycin), and 1 M HEPES in 0.85% NaCl with cercariae suspension and centrifuged at 500 × g for 15 min. Cercarial pellets were resuspended and washed thrice in serum-free M199 medium and collected at 100 × g for 5 min. NTS (240) were transferred to U-bottom 96 well assay plates containing 200 µl of M199 medium supplemented with 5.5 mM D-glucose, penicillin-streptomycin and 5% heat inactivated fetal bovine serum and incubated at 37 °C in a 5% CO2 incubator overnight.
DMSO formulated compounds were diluted with phenol red free M199 medium or RPMI medium for NTS or juvenile and adult worms, respectively, at <1% DMSO final concentrations. NTS, juvenile and adult worms from overnight cultures were tested against compounds in triplicate. Controls were treated with DMSO alone or 5 µM AF as a positive control in appropriate medium. Worm viability was assessed at 24 or 72 h by measuring ATP content of worms using Cell Titer Glo Assay (Promega) as described. Schistosome viabilities in the presence of the compounds were assessed using this formula: % Viability = Averages of Test / Averages of DMSO Control x 100.

Vero cells = assay: Cytotoxicity in mammalian cells (Cell Titer Glo); format: cell-based; details: Vero cells
Protocol: Following overnight incubation, formulated DMSO-compound stock solutions were diluted with DMEM at <1% DMSO final concentrations. […] Vero cells treated similarly with different concentrations of PZQ, MZM and AF (Cayman Chemicals) were used as positive controls.

[2] = 15 minutes pre-incubation, compound 15 µM
[3] = 15 minutes pre-incubation, compound 30 µM
[4] = 15 minutes pre-incubation, compound 66.7 µM
[5] = 6 hours pre-incubation, compound 15 µM
[6] = 6 hours pre-incubation, compound 30 µM
[7] = 6 hours pre-incubation, compound 66.7 µM

Cc1oc(C2CCCCC2)nc1CN[C@@H]1C[C@@H]2C[C@H]([C@H]1C)C2(C)C [C4]
% inhibition (S. mansoni TGR; [2]): 4.307%
% inhibition (S. mansoni TGR; [3]): 7.284%
% inhibition (S. mansoni TGR; [4]): 12.4488%
% inhibition (S. mansoni TGR; [5]): 20.5703%
% inhibition (S. mansoni TGR; [6]): 43.128%
% inhibition (S. mansoni TGR; [7]): 68.6238%
% inhibition (Human GR; [2]): -0.5314%
% inhibition (Human GR; [3]): -1.471%
% inhibition (Human GR; [4]): -0.894%
% inhibition (Human GR; [5]): -2.859%
% inhibition (Human GR; [6]): -0.4408%
% inhibition (Human GR; [7]): -0.3554%
% viability ([1]; Conc. 1 µM): 51.9254%
% viability ([1]; Conc. 5 µM): 22.4326%
% viability ([1]; Conc. 15 µM): 2.552%
% viability ([1]; Conc. 30 µM): 0.3078%
% viability ([1]; Conc. 50 µM): 0.1166%
% viability (Vero cells; Conc. 5 µM): 99.7864%
% viability (Vero cells; Conc. 10 µM): 99.8193%
% viability (Vero cells; Conc. 25 µM): 95.3884%
% viability (Vero cells; Conc. 35 µM): 94.379%
% viability (Vero cells; Conc. 50 µM): 91.2714%
